Laboratory results published in US4435381A, “Thiouronium phosphonates for use in dental treatments” (priority 1983, dated 1984).
≈ marks a conversion by molar mass, not a printed value. Read-outs that look alike come from different tables or passages of the source.

Experiments:
S. mutans [1] = assay: Minimum inhibitory and minimum bactericidal concentrations against S. mutans grown in a typical culture medium; type: cell-based; details: Streptococcus mutans; for MBC: read-out: MBC (minimum bactericidal concentration); for MIC: read-out: MIC (minimum inhibitory concentration)
S. mutans [2] = assay: Acid inhibition (AI): 0.1 normal NaOH needed to neutralize acid produced by S. mutans from sucrose after 48 hours; type: cell-based; details: trypticase-yeast medium containing sucrose, 48 hours incubation
Description: Acid inhibition (AI) is a measure of acid production when S. mutans attacks sucrose to form pyruvic and lactic acids. The organism is added to a culture medium (trypticase-yeast) containing sucrose, and after 48 hours incubation, the quantity of 0.1 normal NaOH (in ml) needed to neutralize the acid is measured.

S. mutans [3] = assay: Plaque inhibition in the hamster (S. mutans infected); type: in vivo, Golden Syrian hamsters; details: Test 2; mean scoring value (approximate percentage of surface); 28 days, 0.3% Methocel suspension, 200 μl per treatment; Methocel control 13.96 ± 1.49; significantly different from control at p ≤ 0.01
Description: Representative thiouronium phosphonates were tested against hamsters as in vivo subjects, as follows.
Golden Syrian hamsters (3-4 wks of age), obtained from GIBCO Animal Resources Laboratories, Madison, Wis. were used in all studies. Upon receipt, the animals were randomly distributed into cages of three animals of the same sex per cage. Experimental groups consisted of twelve animals, six males and six females. Food (Diet 2000, General Biochemicals Co.) and deionized water were allowed ad libitum. Food consumption was monitored three times a week while animal weights were checked twice a week.
After an acclimation period of 10 days, the oral cavities of the hamsters were infected with a cariogenic strain of S. mutans (ATCC 10449, SR 500). This was accomplished by injecting […] of a 24 hr. culture grown static in Todd-Hewitt broth (supplemented with 0.5% lactalbumin hydrolysate) into their mouths, and by adding 2 ml/100 ml of the culture to their drinking water. This was repeated daily for four days. On the fifth day, fresh water was given to the hamsters.
To insure that the organism had actually implanted, the oral cavity of each hamster was swabbed on the sixth day. […]
After all data had been recorded, the codes were broken, the data re-grouped and the various treatment groups compared by a non-parametric one-way analysis of variance.

[4] = against S. mutans grown in a typical culture medium

Row | Compound | MBC (S. mutans [1]; [4]) [µg/mL] | MIC (S. mutans [1]; [4]) [µg/mL] | AI (acid inhibition; amount of 0.1 normal NaOH required) (S. mutans [2]) [mL] | Molar Surface Covered with Plaque (S. mutans [3]) | MBC (S. mutans [1]) [µg/mL] | MIC (S. mutans [1]) [µg/mL]
1 | CCCCCCCCCCCCCSC(=N)N [n=13, R=C6 H5, Tridecyl thiouronium phenylphosphonate] | 2 (≈ 7.74 µM) | 1 (≈ 3.87 µM) | 0.3 | 7.06 ± 1.16 |  | 
2 | CCCCCCCCCCCCCCSC(=N)N [n=14, R=CH3, n-Tetradecyl thiouronium methanephosphonate] |  |  | 0.5 |  | 7.8 (≈ 28.6 µM) | 1 (≈ 3.67 µM)
3 | CCCCCCCCCCSC(=N)N [n=10, R=C6 H5, n-Decyl thiouronium phenylphosphonate] | 3.9 (≈ 18 µM) | 2 (≈ 9.24 µM) | 1.25 |  |  | 
4 | CCCCCCCCCCCSC(=N)N [n=11, R=C6 H5] | 2 (≈ 8.68 µM) | 1 (≈ 4.34 µM) | 0.5 |  |  | 
